# B1: Dehaloperoxidase B from Amphitrite ornata (enzyme)
# chain: GFKQDIATLRGDLRTYAQDIFLAFLNKYPDEKRNFKNYVGKSDQELKSMAKFGDHTEKVFNLMMEVADRATDCVPLASDASTLVQMKQHSGLTTGNFEKLFVALVEYMRASGQSFDSQSWDRFGKNLVSALSSAGMK
# notes: Dehaloperoxidase B (DHP-B), heme peroxidase from the marine annelid Amphitrite ornata; Heme protein; Crystallised with the small ligands DCP or 5BR soaked in; also called DHP-B; DHP; source: expressed and purified as described previously (McCombs, Moreno-Chicano et al., 2017)
# Experiments:
# [1] = biological target: T1, dehaloperoxidase B (DHP-B; DHP) (Amphitrite ornata, UniProt Q9NAV7); assay: SFX crystal structure, room temperature, […] A; type: binding; conditions: 3-5 min, distal heme pocket, not bound to iron
# T1 construct: homodimer in the asymmetric unit
# [2] = biological target: Dye-type peroxidase Aa from Streptomyces lividans (Streptomyces lividans); assay: crystal structure; serial femtosecond crystallography at room temperature, microcrystals on silicon fixed-target chips, SACLA beamline BL2 EH3; two monomers (homodimer) in the crystallographic asymmetric unit
# [3] = biological target: the molecule itself; assay: as above
molecule,measurement,setting,value
"Oc1ccc(Cl)cc1Cl [2,4-dichlorophenol]","SFX crystal structure, room temperature, 1.85 A","[1]; crystals pH 6.0, soaked 5 mM, near-full occupancy in monomer B",DCP exhibited a binding site that was virtually identical to those previously observed
Brc1ccc2[nH]ccc2c1 [5-bromoindole],"SFX crystal structure, room temperature, 1.85 A","[1]; crystals pH 6.0, soaked 50 mM, lower occupancy in second monomer",the 5BR complex was consistent with a computationally hypothesized binding site
Dye-type peroxidase Aa from Streptomyces lividans (enzyme),stoichiometry N,[2],2
B1,stoichiometry N,[3],2

# — paper PMC6830213, “High-throughput structures of protein–ligand complexes at room temperature using serial femtosecond crystallography” (IUCrJ, 2019)
